According to PubChem BioAssay AID2060908 (Molecular Pharmacology Branch, DTP, NCI, 2025):

Test system: 186277-243-T-J2-PDC complex spheroids, viability
Assay: Anticancer human tumor 186277-243-T-J2-PDC patient-derived colon adenocarcinoma cell line growth inhibition [RAS]
Details: for IC50: curve of first compound; for viability, T/C: stronger effect = lower value; active = viability on the fitted dose curve at most 10% of control; inactive = the rest
Procedure, shortened: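 Multi-cell-type spheroids: tumor cells plus HUVEC endothelial cells and mesenchymal stem cells. RAS-pathway inhibitors were combined with targeted agents, each dosed in half-log steps down from clinical Cmax, or from 10 microM when Cmax was unknown.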

[1] = second compound 0.00316 µM, first compound 0.0316 µM
[2] = second compound 0.00316 µM, first compound 0.1 µM
[3] = second compound 0.00316 µM, first compound 0.316 µM
[4] = second compound 0.00316 µM, first compound 1 µM
[5] = second compound 0.00316 µM, first compound 3.16 µM
[6] = second compound 0.00316 µM, first compound 10 µM
[7] = second compound 0.01 µM, first compound 0.0316 µM
[8] = second compound 0.01 µM, first compound 0.1 µM
[9] = second compound 0.01 µM, first compound 0.316 µM
[10] = second compound 0.01 µM, first compound 1 µM
[11] = second compound 0.01 µM, first compound 3.16 µM
[12] = second compound 0.01 µM, first compound 10 µM
[13] = second compound 0.0316 µM, first compound 0.0316 µM
[14] = second compound 0.0316 µM, first compound 0.1 µM
[15] = second compound 0.0316 µM, first compound 0.316 µM
[16] = second compound 0.0316 µM, first compound 1 µM
[17] = second compound 0.0316 µM, first compound 3.16 µM
[18] = second compound 0.0316 µM, first compound 10 µM
[19] = second compound 0.1 µM, first compound 0.0316 µM
[20] = second compound 0.1 µM, first compound 0.1 µM
[21] = second compound 0.1 µM, first compound 0.316 µM
[22] = second compound 0.1 µM, first compound 1 µM
[23] = second compound 0.1 µM, first compound 3.16 µM
[24] = second compound 0.1 µM, first compound 10 µM
[25] = second compound 0.316 µM, first compound 0.0316 µM
[26] = second compound 0.316 µM, first compound 0.1 µM
[27] = second compound 0.316 µM, first compound 0.316 µM
[28] = second compound 0.316 µM, first compound 1 µM
[29] = second compound 0.316 µM, first compound 3.16 µM
[30] = second compound 0.316 µM, first compound 10 µM
[31] = second compound 1 µM, first compound 0.0316 µM
[32] = second compound 1 µM, first compound 0.1 µM
[33] = second compound 1 µM, first compound 0.316 µM
[34] = second compound 1 µM, first compound 1 µM
[35] = second compound 1 µM, first compound 3.16 µM
[36] = second compound 1 µM, first compound 10 µM
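Note: spheroids exposed to compounds for 7 days before viability read.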

CC(C)NCC(C(=O)N1CCN(c2ncnc3c2C(C)CC3O)CC1)c1ccc(Cl)cc1 (stereo unspecified) + C=CC(=O)N1CCN(c2nc(OCC3CCCN3C)nc3c(F)c(-c4nc(N)cc(C)c4C(F)(F)F)c(Cl)cc23)C(C)C1
2040 nM: IC50 (second compound 0.1 µM)
3220 nM: IC50 (second compound 0.01 µM)
1680 nM: IC50 (second compound 0.00316 µM)
2530 nM: IC50 (second compound 0.316 µM)
2700 nM: IC50 (second compound 0.0316 µM)
1910 nM: IC50 (second compound 1 µM)
inactive: viability, T/C [1] 94.2% | viability, T/C [2] 87% | viability, T/C [3] 113% | viability, T/C [4] 59.2% | viability, T/C [5] 43.6% | viability, T/C [6] 34% | viability, T/C [7] 78.7% | viability, T/C [8] 100% | viability, T/C [9] 101% | viability, T/C [10] 79.4% | viability, T/C [11] 51.4% | viability, T/C [12] 33.6% | viability, T/C [13] 72.3% | viability, T/C [14] 110% | viability, T/C [15] 77.1% | viability, T/C [16] 87.1% | viability, T/C [17] 44.1% | viability, T/C [18] 35.2% | viability, T/C [19] 93.2% | viability, T/C [20] 85.8% | viability, T/C [21] 103% | viability, T/C [22] 63.4% | viability, T/C [23] 47.6% | viability, T/C [24] 35.8% | viability, T/C [25] 91.4% | viability, T/C [26] 96.3% | viability, T/C [27] 89.1% | viability, T/C [28] 62.8% | viability, T/C [29] 49.9% | viability, T/C [30] 29.5% | viability, T/C [31] 107% | viability, T/C [32] 97.7% | viability, T/C [33] 87.5% | viability, T/C [34] 63.7% | viability, T/C [35] 38.9% | viability, T/C [36] 25.2%

CC(C)n1nc(-c2ccc3oc(N)nc3c2)c2c(N)ncnc21 + C=CC(=O)N1CCN(c2nc(OCC3CCCN3C)nc3c(F)c(-c4nc(N)cc(C)c4C(F)(F)F)c(Cl)cc23)C(C)C1
inactive: viability, T/C (second compound 0.00316 µM, first compound 0.000316 µM) 109% | viability, T/C (second compound 0.00316 µM, first compound 0.001 µM) 92.1% | viability, T/C (second compound 0.00316 µM, first compound 0.00316 µM) 91.1% | viability, T/C (second compound 0.00316 µM, first compound 0.01 µM) 80.4% | viability, T/C [1] 90.1% | viability, T/C [2] 43.5% | viability, T/C (second compound 0.01 µM, first compound 0.000316 µM) 97.6% | viability, T/C (second compound 0.01 µM, first compound 0.001 µM) 96.7% | viability, T/C (second compound 0.01 µM, first compound 0.00316 µM) 82.5% | viability, T/C (second compound 0.01 µM, first compound 0.01 µM) 106% | viability, T/C [7] 77.7% | viability, T/C [8] 51.4% | viability, T/C (second compound 0.0316 µM, first compound 0.000316 µM) 95.1% | viability, T/C (second compound 0.0316 µM, first compound 0.001 µM) 104% | viability, T/C (second compound 0.0316 µM, first compound 0.00316 µM) 80.3% | viability, T/C (second compound 0.0316 µM, first compound 0.01 µM) 123% | viability, T/C [13] 89.8% | viability, T/C [14] 56.8% | viability, T/C (second compound 0.1 µM, first compound 0.000316 µM) 94.5% | viability, T/C (second compound 0.1 µM, first compound 0.001 µM) 106% | viability, T/C (second compound 0.1 µM, first compound 0.00316 µM) 108% | viability, T/C (second compound 0.1 µM, first compound 0.01 µM) 91% | viability, T/C [19] 90.8% | viability, T/C [20] 48.5% | viability, T/C (second compound 0.316 µM, first compound 0.000316 µM) 92.5% | viability, T/C (second compound 0.316 µM, first compound 0.001 µM) 106% | viability, T/C (second compound 0.316 µM, first compound 0.00316 µM) 94% | viability, T/C (second compound 0.316 µM, first compound 0.01 µM) 93.9% | viability, T/C [25] 97.4% | viability, T/C [26] 48% | viability, T/C (second compound 1 µM, first compound 0.000316 µM) 109% | viability, T/C (second compound 1 µM, first compound 0.001 µM) 101% | viability, T/C (second compound 1 µM, first compound 0.00316 µM) 84.6% | viability, T/C (second compound 1 µM, first compound 0.01 µM) 113% | viability, T/C [31] 82.5% | viability, T/C [32] 42.5%
85.1 nM: IC50 (second compound 0.00316 µM)
80.3 nM: IC50 (second compound 1 µM)
95.1 nM: IC50 (second compound 0.316 µM)
97.6 nM: IC50 (second compound 0.1 µM)
> 100 nM: IC50 (second compound 0.01 µM) | IC50 (second compound 0.0316 µM)

C[C@@H](NC(=O)c1ncnc(N)c1Cl)c1ncc(C(=O)Nc2cc(C(F)(F)F)c(Cl)cn2)s1 + C=CC(=O)N1CCN(c2nc(OCC3CCCN3C)nc3c(F)c(-c4nc(N)cc(C)c4C(F)(F)F)c(Cl)cc23)C(C)C1
> 10000 nM: IC50 (second compound 0.00316 µM) | IC50 (second compound 0.01 µM) | IC50 (second compound 0.0316 µM) | IC50 (second compound 0.1 µM) | IC50 (second compound 0.316 µM) | IC50 (second compound 1 µM)
inactive: viability, T/C [1] 102% | viability, T/C [2] 104% | viability, T/C [3] 73.2% | viability, T/C [4] 86.2% | viability, T/C [5] 93.9% | viability, T/C [6] 106% | viability, T/C [7] 80.8% | viability, T/C [8] 83.8% | viability, T/C [9] 114% | viability, T/C [10] 89.5% | viability, T/C [11] 126% | viability, T/C [12] 71.2% | viability, T/C [13] 104% | viability, T/C [14] 113% | viability, T/C [15] 84.3% | viability, T/C [16] 97.4% | viability, T/C [17] 122% | viability, T/C [18] 72.2% | viability, T/C [19] 86.4% | viability, T/C [20] 103% | viability, T/C [21] 103% | viability, T/C [22] 95.1% | viability, T/C [23] 121% | viability, T/C [24] 97.3% | viability, T/C [25] 103% | viability, T/C [26] 92.3% | viability, T/C [27] 95.5% | viability, T/C [28] 87% | viability, T/C [29] 104% | viability, T/C [30] 84.7% | viability, T/C [31] 104% | viability, T/C [32] 82% | viability, T/C [33] 82.4% | viability, T/C [34] 92.1% | viability, T/C [35] 91.2% | viability, T/C [36] 89.8%
